# Assays:
# LARP6/5′SL RNA complex = target: T1, LARP6/5′SL RNA complex (Homo sapiens, UniProt Q9BRS8); experiment: Gel mobility shift: purified/recombinant LARP6 binding to 5′ stem-loop RNA in vitro; details: recombinant LARP6, electrophoretic mobility shift assay, FIG. 12
# T1 sequence (Q9BRS8 1-491): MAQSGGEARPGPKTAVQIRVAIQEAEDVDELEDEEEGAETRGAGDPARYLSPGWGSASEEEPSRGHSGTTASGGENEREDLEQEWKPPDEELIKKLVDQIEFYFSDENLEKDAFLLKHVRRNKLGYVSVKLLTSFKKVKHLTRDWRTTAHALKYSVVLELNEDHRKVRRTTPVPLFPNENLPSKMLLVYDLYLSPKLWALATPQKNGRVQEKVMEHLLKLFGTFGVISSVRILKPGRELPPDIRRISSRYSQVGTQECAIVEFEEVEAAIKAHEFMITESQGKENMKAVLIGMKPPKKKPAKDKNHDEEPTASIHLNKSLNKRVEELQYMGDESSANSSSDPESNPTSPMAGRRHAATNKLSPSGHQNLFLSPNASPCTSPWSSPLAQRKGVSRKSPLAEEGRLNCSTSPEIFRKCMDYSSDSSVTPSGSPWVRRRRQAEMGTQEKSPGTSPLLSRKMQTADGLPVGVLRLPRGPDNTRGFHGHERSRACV
# Method: Next, the inhibition of LARP6 binding was tested by gel mobility shift experiments in which binding of purified LARP6 to 5′SL RNA was resolved as protein/RNA complex in gel electrophoresis.
# To assess the efficacy of CID 71314610 in inhibiting LARP6 binding to its target sequence, the 5′ stem-loop of type I collagen mRNAs, recombinant LARP6 protein was added to 5′ stem-loop RNA in vitro and CID 71314610 was added at nano-M concentrations to the reaction. The formation of LARP6/RNA complex was analyzed by electrophoretic mobility shift assay.
# [1] = system: type I collagen secretion by human lung fibroblasts; experiment: Type I collagen secretion by human lung fibroblasts (western blot of medium); assay type: cell-based
# Method: Based on the ability of the cefixime preparation 1 component to inhibit LARP6/5′SL interaction, cefixime preparation 2 was tested to inhibit type 1 collagen production by human lung fibroblasts. The cells were treated with cefixime preparation 2 in a range of concentrations for 18 hours. The cellular medium was changed and the accumulation of type I collagen into the fresh medium was measured after 3 hours. This provided an estimate of the rate by which the cells can secrete type I collagen. […] At 50 μM, secretion of type I collagen was reduced by about 50%. At 100 μM it was reduced by about 80%. […] This provided evidence that a component of commercial cefixime preparations can act as antifibrotic drugs. Human lung fibroblasts are responsible for lung fibrosis. These cells were cultured in vitro and CID 71314610 was added to the cellular medium at 0.5-50 μM. After overnight incubation the medium was changed and secretion of type I collagen into the fresh medium was analyzed by western blot. The rate of collagen secretion into the medium is a measure of the profibrotic activity of cells. Type I collagen is composed of two polypeptides, α1(I) and α2(I), so both were analyzed. […] In three independent experiments the expression of α1(I) and α2(I) polypeptides was normalized to the expression of fibronectin and plotted as function of CID 71314610 concentration (FIG. 13, bottom panel).
# [2] = system: fibronectin secretion by human lung fibroblasts; experiment: Fibronectin secretion by human lung fibroblasts (western blot, specificity control); assay type: cell-based; details: same treatment as collagen read-out
# Method: At 50 μM, secretion of type I collagen was reduced by about 50%. At 100 μM it was reduced by about 80%. […] This provided evidence that a component of commercial cefixime preparations can act as antifibrotic drugs.
# Human lung fibroblasts are responsible for lung fibrosis. These cells were cultured in vitro and CID 71314610 was added to the cellular medium at 0.5-50 μM. After overnight incubation the medium was changed and secretion of type I collagen into the fresh medium was analyzed by western blot. The rate of collagen secretion into the medium is a measure of the profibrotic activity of cells. Type I collagen is composed of two polypeptides, α1(I) and α2(I), so both were analyzed. […] In three independent experiments the expression of α1(I) and α2(I) polypeptides was normalized to the expression of fibronectin and plotted as function of CID 71314610 concentration (FIG. 13, bottom panel).
# purified LARP6 protein = target: T2, purified LARP6 protein (Homo sapiens, UniProt Q9BRS8); experiment: Affinity binding of commercial cefixime preparation to purified LARP6, elution and mass spectrometry; details: FIG. 11
# T2 sequence (Q9BRS8 1-491): T1 sequence (Q9BRS8 1-491)
# From the text: The component with antifibrotic activity in the commercial cefixime preparations was identified by affinity binding of the commercial cefixime preparations to the purified LARP6 protein, followed by elution of the bound molecular species and their identification by mass spectrometry. […] This component has two diastereomer isoforms which were present in miniscule amounts in the commercial cefixime preparations, but both were sequestered by LARP6 protein.
compound,measurement,setting,value
"CC1OC(=O)C2=C1CS[C@H](CNC(=O)/C(=N\OCC(=O)O)c1csc(N)n1)N2 (mixture of isomers) [CID 71314610, 2-[[[(Z)-1-(2-Aminothiazol-4-yl)-2-[[[(2R,5RS)-5-methyl-7-oxo-1,2,5,7-tetrahydro-4H-furo[3,4-d][1,3]thiazin-2-yl]methyl]amino]-2-oxoethylidene]amino]oxy]acetic acid]",dissociation of LARP6/RNA complexes,LARP6/5′SL RNA complex; 50 nM,50%
same,dissociation of LARP6/RNA complexes,LARP6/5′SL RNA complex; 100 nM,~90%
same,secretion of α1(I) and α2(I) collagen polypeptides,"[1]; 0.5-50 μM, overnight incubation, FIG. 13 upper panel",inhibited by CID 71314610 in the concentration dependent manner
same,concentration with highly statistically significant inhibition of both polypeptides comprising type I collagen,"[1]; three independent experiments, normalized to fibronectin, FIG. 13 bottom panel",5 µM
same,secretion of fibronectin,[2],not affected
same,fraction of input present in cefixime preparation bound by LARP6,purified LARP6 protein; one diastereomer,50%
same,fraction of input present in cefixime preparation bound by LARP6,purified LARP6 protein; the other diastereomer,100%
